Measurements reported in patent US12486253B2, “Therapeutics for the degradation of mutant BRAF” (C4 THERAPEUTICS, INC., priority 2021, dated 2025).

Target: BRAF V600E (Homo sapiens, UniProt P15056, V600E)
Assay: HiBiT cellular BRAF^V600E degradation assay
Format: cell-based
Conditions: A375.10 cells, 24 h; for DC50: concentration at which 50% of total cellular BRAF^V600E is degraded; for Emax: residual protein remaining in the cell, read-out: HiBit 24 h Emax

Sequence of BRAF V600E (P15056 whole entry V600E): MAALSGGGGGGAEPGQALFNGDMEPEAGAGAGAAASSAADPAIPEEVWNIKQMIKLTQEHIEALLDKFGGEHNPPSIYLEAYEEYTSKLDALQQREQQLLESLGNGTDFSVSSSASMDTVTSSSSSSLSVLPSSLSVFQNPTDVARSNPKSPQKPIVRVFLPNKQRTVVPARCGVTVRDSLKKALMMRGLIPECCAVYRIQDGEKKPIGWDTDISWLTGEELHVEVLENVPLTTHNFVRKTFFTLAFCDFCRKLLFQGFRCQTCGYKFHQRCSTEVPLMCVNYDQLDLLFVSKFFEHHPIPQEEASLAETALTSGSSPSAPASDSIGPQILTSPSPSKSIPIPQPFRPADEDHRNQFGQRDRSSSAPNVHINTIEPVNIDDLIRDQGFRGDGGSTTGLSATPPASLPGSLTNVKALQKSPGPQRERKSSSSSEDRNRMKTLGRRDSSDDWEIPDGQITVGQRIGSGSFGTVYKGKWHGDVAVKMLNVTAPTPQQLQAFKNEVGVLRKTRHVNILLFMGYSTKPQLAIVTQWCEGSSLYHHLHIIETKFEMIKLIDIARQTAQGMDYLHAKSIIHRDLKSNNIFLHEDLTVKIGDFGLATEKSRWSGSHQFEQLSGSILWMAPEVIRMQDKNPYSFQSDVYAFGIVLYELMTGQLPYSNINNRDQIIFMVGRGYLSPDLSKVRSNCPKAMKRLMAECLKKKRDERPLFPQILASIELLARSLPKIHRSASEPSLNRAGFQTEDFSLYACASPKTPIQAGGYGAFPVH

SMILES	DC50	Emax
CCN(C)S(=O)(=O)Nc1ccc(F)c(Oc2ccc3ncn(CCC4CCN(C(=O)CN5CCC(c6ccc7c(C8CCC(=O)NC8=O)nn(C)c7c6)CC5)CC4)c(=O)c3c2)c1C#N (stereo not drawn) [Example 144, 6-[2-cyano-3-[[ethyl(methyl)sulfamoyl]amino]-6-fluorophenoxy]-3-[2-[1-[2-[4-[3-(2,6-dioxopiperidin-3-yl)-1-methylindazol-6-yl]piperidin-1-yl]acetyl]piperidin-4-yl]ethyl]-4-oxoquinazoline]	28.4 nM	16.7%
CCN(C)S(=O)(=O)Nc1ccc(F)c(Oc2ccc3ncn(CCCC4CCN(C(=O)CN5CCC(c6ccc7c(C8CCC(=O)NC8=O)nn(C)c7c6)CC5)CC4)c(=O)c3c2)c1C#N (stereo not drawn) [Example 145, 6-[2-cyano-3-[[ethyl(methyl)sulfamoyl]amino]-6-fluorophenoxy]-3-[3-[1-[2-[4-[3-(2,6-dioxopiperidin-3-yl)-1-methylindazol-6-yl]piperidin-1-yl]acetyl]piperidin-4-yl]propyl]-4-oxoquinazoline]	10.6 nM	15%
CCN(C)S(=O)(=O)Nc1ccc(F)c(Oc2ccc3ncn(-c4cnn(C5CCN(C(=O)CN6CCC(c7ccc8c(C9CCC(=O)NC9=O)nn(C)c8c7)CC6)CC5)c4)c(=O)c3c2)c1C#N (stereo not drawn) [Example 146, 6-[2-cyano-3-[[ethyl(methyl)sulfamoyl]amino]-6-fluorophenoxy]-3-[1-[1-[2-[4-[3-(2,6-dioxopiperidin-3-yl)-1-methylindazol-6-yl]piperidin-1-yl]acetyl]piperidin-4-yl]pyrazol-4-yl]-4-oxoquinazoline]	22.2 nM	16%
CCN(C)S(=O)(=O)Nc1ccc(F)c(Oc2ccc3ncn(C4CC5(CCN(C(=O)CN6CCC(c7ccc8c(N9CCC(=O)NC9=O)nn(C)c8c7)CC6)CC5)C4)c(=O)c3c2)c1C#N [Example 147, 6-[2-cyano-3-[[ethyl(methyl)sulfamoyl]amino]-6-fluorophenoxy]-3-[7-[2-[4-[3-(2,4-dioxo-1,3-diazinan-1-yl)-1-methylindazol-6-yl]piperidin-1-yl]acetyl]-7-azaspiro[3.5]nonan-2-yl]-4-oxoquinazoline]	26.9 nM	9.49%
CCN(C)S(=O)(=O)Nc1ccc(F)c(Oc2ccc3ncn(C4COC5(CCN(C(=O)CN6CCC(c7ccc8c(N9CCC(=O)NC9=O)nn(C)c8c7)CC6)CC5)C4)c(=O)c3c2)c1C#N (stereo not drawn) [Example 148, 3-[6-[2-cyano-3-[[ethyl(methyl)sulfamoyl]amino]-6-fluorophenoxy]-4-oxoquinazolin-3-yl]-8-[2-[4-[3-(2,4-dioxo-1,3-diazinan-1-yl)-1-methylindazol-6-yl]piperidin-1-yl]acetyl]-1-oxa-8-azaspiro[4.5]decane]	18.4 nM	8.7%
CCN(C)S(=O)(=O)Nc1ccc(F)c(Oc2ccc3ncn(C4CC5(CCN(C(=O)CN6CCC(c7ccc8c(C9CCC(=O)NC9=O)nn(C)c8c7)CC6)CC5)C4)c(=O)c3c2)c1C#N (stereo not drawn) [Example 149, 6-[2-cyano-3-[[ethyl(methyl)sulfamoyl]amino]-6-fluorophenoxy]-3-[7-[2-[4-[3-(2,6-dioxopiperidin-3-yl)-1-methylindazol-6-yl]piperidin-1-yl]acetyl]-7-azaspiro[3.5]nonan-2-yl]-4-oxoquinazoline]	10.7 nM	11.5%
CCN(C)S(=O)(=O)Nc1ccc(F)c(Oc2ccc3ncn([C@H]4COC5(CCN(C(=O)CC6CCN(c7ccc8c(C9CCC(=O)NC9=O)nn(C)c8c7)CC6)CC5)C4)c(=O)c3c2)c1C#N (stereo partly drawn) [Example 151, (3R)-3-[6-[2-cyano-3-[[ethyl(methyl)sulfamoyl]amino]-6-fluorophenoxy]-4-oxoquinazolin-3-yl]-8-[2-[1-[3-(2,6-dioxopiperidin-3-yl)-1-methylindazol-6-yl]piperidin-4-yl]acetyl]-1-oxa-8-azaspiro[4.5]decane]	18.7 nM	24.6%
CCN(C)S(=O)(=O)Nc1ccc(F)c(Oc2ccc3ncn([C@H]4COC5(CCN(C(=O)CC6(O)CCN(c7ccc8c(C9CCC(=O)NC9=O)nn(C)c8c7)CC6)CC5)C4)c(=O)c3c2)c1C#N (stereo partly drawn) [Example 152, (3R)-3-[6-[2-cyano-3-[[ethyl(methyl)sulfamoyl]amino]-6-fluorophenoxy]-4-oxoquinazolin-3-yl]-8-[2-[1-[3-(2,6-dioxopiperidin-3-yl)-1-methylindazol-6-yl]-4-hydroxypiperidin-4-yl]acetyl]-1-oxa-8-azaspiro[4.5]decane]	27.2 nM	25.2%
CCN(C)S(=O)(=O)Nc1ccc(F)c(Oc2ccc3ncn([C@H]4CCC5(CCN(C(=O)CN6CCC(c7ccc8c(N9CCC(=O)NC9=O)nn(C)c8c7)CC6)CC5)C4)c(=O)c3c2)c1C#N [Example 154, 6-[2-cyano-3-[[ethyl(methyl)sulfamoyl]amino]-6-fluorophenoxy]-3-[(3S)-8-[2-[4-[3-(2,4-dioxo-1,3-diazinan-1-yl)-1-methylindazol-6-yl]piperidin-1-yl]acetyl]-8-azaspiro[4.5]decan-3-yl]-4-oxoquinazoline]	24.6 nM	11.1%
CCN(C)S(=O)(=O)Nc1ccc(F)c(Oc2ccc3ncn(C4CCC5(CC4)CCN(C(=O)CN4CCC(c6ccc7c(N8CCC(=O)NC8=O)nn(C)c7c6)CC4)CC5)c(=O)c3c2)c1C#N [Example 155, 9-[6-[2-cyano-3-[[ethyl(methyl)sulfamoyl]amino]-6-fluorophenoxy]-4-oxoquinazolin-3-yl]-3-[2-[4-[3-(2,4-dioxo-1,3-diazinan-1-yl)-1-methylindazol-6-yl]piperidin-1-yl]acetyl]-3-azaspiro[5.5]undecane]	23.2 nM	9.75%

Continued, values first:

DC50	Emax	SMILES
27.2 nM	8.2%	N#Cc1c(NS(=O)(=O)C2CCC2)ccc(F)c1Oc1ccc2ncn(-c3cnc(N4CCN(C(=O)CN5CCC(c6ccc(N[C@@H]7CCC(=O)NC7=O)cc6F)CC5)CC4)nc3)c(=O)c2c1 [Example 133, N-[2-cyano-3-[3-[2-[4-[2-[4-[4-[[(3R)-2,6-dioxopiperidin-3-yl]amino]-2-fluorophenyl]piperidin-1-yl]acetyl]piperazin-1-yl]pyrimidin-5-yl]-4-oxoquinazolin-6-yl]oxy-4-fluorophenyl]cyclobutanesulfonamide]
31.4 nM	13.7%	CCN(C)S(=O)(=O)Nc1ccc(F)c(Oc2ccc3ncn(-c4cnc(N5CCN(C(=O)CN6CCC(c7ccc(N[C@@H]8CCC(=O)NC8=O)cc7F)CC6)CC5)nc4)c(=O)c3c2COC)c1C#N [Example 135, 6-[2-cyano-3-[[ethyl(methyl)sulfamoyl]amino]-6-fluorophenoxy]-3-[2-[4-[2-[4-[4-[[(3R)-2,6-dioxopiperidin-3-yl]amino]-2-fluorophenyl]piperidin-1-yl]acetyl]piperazin-1-yl]pyrimidin-5-yl]-5-(methoxymethyl)-4-oxoquinazoline]
16.3 nM	16.9%	CCN(C)S(=O)(=O)Nc1ccc(F)c(Oc2ccc3ncn(-c4cnc(N5CCN(C(=O)CN6CCC(c7ccc(N[C@H]8CCC(=O)NC8=O)cc7F)CC6)CC5)nc4)c(=O)c3c2O)c1C#N [Example 136, 6-[2-cyano-3-[[ethyl(methyl)sulfamoyl]amino]-6-fluorophenoxy]-3-[2-[4-[2-[4-[4-[[(3S)-2,6-dioxopiperidin-3-yl]amino]-2-fluorophenyl]piperidin-1-yl]acetyl]piperazin-1-yl]pyrimidin-5-yl]-5-hydroxy-4-oxoquinazoline]
34.2 nM	25.1%	CCN(C)S(=O)(=O)Nc1ccc(F)c(Oc2ccc3ncn(-c4cnc(N5CCN(C(=O)CN6CCC(c7ccc(N[C@@H]8CCC(=O)NC8=O)cc7F)CC6)CC5)nc4)c(=O)c3c2O)c1C#N [Example 137, 6-[2-cyano-3-[[ethyl(methyl)sulfamoyl]amino]-6-fluorophenoxy]-3-[2-[4-[2-[4-[4-[[(3R)-2,6-dioxopiperidin-3-yl]amino]-2-fluorophenyl]piperidin-1-yl]acetyl]piperazin-1-yl]pyrimidin-5-yl]-5-hydroxy-4-oxoquinazoline]
17.2 nM	10.7%	O=C1CC[C@H](Nc2ccc(C3CCN(CC(=O)N4CCN(c5ncc(-n6cnc7ccc(Oc8c(F)ccc(NS(=O)(=O)C9CCCC9)c8F)cc7c6=O)cn5)CC4)CC3)c(F)c2)C(=O)N1 [Example 138, N-[3-[3-[2-[4-[2-[4-[4-[[(3S)-2,6-dioxopiperidin-3-yl]amino]-2-fluorophenyl]piperidin-1-yl]acetyl]piperazin-1-yl]pyrimidin-5-yl]-4-oxoquinazolin-6-yl]oxy-2,4-difluorophenyl]cyclopentanesulfonamide]
41.2 nM	13.2%	CCN(C)S(=O)(=O)Nc1ccc(F)c(Oc2ccc3ncn(-c4cnc(N5CCN(C(=O)CN6CCC(c7ccc(N[C@@H]8CCC(=O)NC8=O)cc7F)CC6)CC5)nc4)c(=O)c3c2)c1F [Example 139, 3-[2-[4-[2-[4-[4-[[(3R)-2,6-dioxopiperidin-3-yl]amino]-2-fluorophenyl]piperidin-1-yl]acetyl]piperazin-1-yl]pyrimidin-5-yl]-6-[3-[[ethyl(methyl)sulfamoyl]amino]-2,6-difluorophenoxy]-4-oxoquinazoline]
27.8 nM	12.3%	CCN(C)S(=O)(=O)Nc1ccc(F)c(Oc2ccc3ncn(-c4cnc(N5CCN(C(=O)CN6CCC(c7ccc(N[C@H]8CCC(=O)NC8=O)cc7F)CC6)CC5)nc4)c(=O)c3c2)c1F [Example 140, 3-[2-[4-[2-[4-[4-[[(3S)-2,6-dioxopiperidin-3-yl]amino]-2-fluorophenyl]piperidin-1-yl]acetyl]piperazin-1-yl]pyrimidin-5-yl]-6-[3-[[ethyl(methyl)sulfamoyl]amino]-2,6-difluorophenoxy]-4-oxoquinazoline]
55 nM	26.3%	CCN(C)S(=O)(=O)Nc1ccc(F)c(C(=O)c2ccc3ncn(-c4cnc(N5CCN(C(=O)CN6CCC(c7ccc(N[C@@H]8CCC(=O)NC8=O)cc7F)CC6)CC5)nc4)c(=O)c3c2)c1F [Example 141, 3-[2-[4-[2-[4-[4-[[(3R)-2,6-dioxopiperidin-3-yl]amino]-2-fluorophenyl]piperidin-1-yl]acetyl]piperazin-1-yl]pyrimidin-5-yl]-6-[3-[[ethyl(methyl)sulfamoyl]amino]-2,6-difluorobenzoyl]-4-oxoquinazoline]
